Measured values: patent US10562947B2, “Compositions and methods for preventing or treating diseases, conditions or processes characterized by aberrant fibroblast proliferation and extracellular matrix deposition” (MOERAE MATRIX, INC., priority 2011, dated 2020)
Where a SMILES comes first, the peptide text is derived from it.

Legend:
splenic T cells = assay: Autologous mixed lymphocyte reaction of splenic T cells from treated bleomycin mice; format: in vivo, mouse; details: day 7 to 21
Excerpt: Recent studies highlighted a key role for T lymphocytes in bleomycin-induced fibrosis (Wilson, M. et al., The Journal of Experimental Medicine, 207(3): 535-552, 2010). […] Specifically, the ability of C57BL/6 purified antigen-presenting cells to induce proliferation in C57BL/6 T lymphocytes was examined in the assay.
C57-BL/6 mice were subjected to bleomycin injury at day 0. […] Splenic T cells were isolated and cultured alone or in the presence of autologous antigen presenting cells (APCs from C57-BL/6 mice) or stimulated with antibodies against CD3 (α-CD3) for 48 h. The cells then were radiolabeled with […] thymidine for 16 h and assessed for proliferation rates.

[1] = tested on: bleomycin-induced lung fibrosis in C57BL/6 mice; assay: Bleomycin mouse model of pulmonary fibrosis, treatment model (dosing day 14 to 28); format: in vivo; parameters: collagen deposition (hydroxyproline assay, whole left lung): dose or concentration left out as unconfirmed
Method: A mouse model of pulmonary fibrosis was generated by administering 0.025 U of bleomycin/PBS intratracheally to C57BL/6 mice. […] At 21 day post bleomycin delivery (for prevention model) or 28 post bleomycin delivery (for treatment model), groups of mice were sacrificed with a sodium pentobarbital injection (120 mg/kg) and the chest cavity was opened. The right mainstem bronchus was ligated and the right lung was removed. The trachea was cannulated and the left lung was perfused with 4% formaldehyde at 21 cm H2O pressure. The tissue blocks then were embedded in paraffin, and […] sections were prepared for staining. Sections from each animal were stained with hematoxylin and eosin (H&E) to visualize cells or with Masson's Trichrome staining to highlight collagen deposition. […] Stained sections were mounted onto a labeled glass slide with organic mounting medium.
The classic bleomycin model, as depicted in FIG. 10, has been used widely in the literature in the pre-fibrotic stage to test efficacy of any intervention. […]
Next, collagen deposition was determined quantitatively by using the standard hydroxyproline assay with whole left lung. Total collagen (soluble and insoluble) deposition was assessed by analyzing hydroxyproline concentrations in murine lungs day 28 post bleomycin injury.

phospho-Thr^334-MAPKAPK2 = assay: Activated MK2 immunostaining of lung sections, bleomycin treatment model; format: in vivo, mouse; details: 50 μg/kg daily IP or NEB, day 14 to 28
Excerpt: Briefly, C57-BL/6 mice were subjected to bleomycin injury at day 0. […] Formalin-fixed lung tissue sections were immunostained against phospho-Thr^334 MK2. Control staining was with biotinylated secondary IgG antibody. Streptavidin-conjugated horseradish peroxidase was used with 3,3′-diaminobenzidene as substrate and nuclei was counterstained with hematoxylin.

CK1γ2(h) = CK1γ2(h) (Homo sapiens, UniProt P78368); assay: Kinase Profiling Assay; format: biochemical; details: 100 μM peptide
Method in brief: (§1)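 Each kinase in a 266-member human panel is assayed, in duplicate, for activity in the presence of MK2 inhibitory peptides to gauge specificity.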

PAK6(h) = PAK6(h) (Homo sapiens, UniProt Q9NQU5); assay: Kinase Profiling Assay; format: biochemical; details: 100 μM peptide
Method in brief: as §1

c-RAF(h) = c-RAF(h) (Homo sapiens, UniProt P04049); assay: Kinase Profiling Assay; format: biochemical; details: 100 μM peptide
Method in brief: as §1

Plk1(h) = biological target: T1, Plk1(h) (Homo sapiens, UniProt P53350); assay: Kinase Profiling Assay; format: biochemical; details: 100 μM peptide
T1 construct: purchased Millipore (IC50 Profiler Express service)
Method in brief: as §1

CK1γ1(h) = CK1γ1(h) (Homo sapiens, UniProt Q9HCP0); assay: Kinase Profiling Assay; format: biochemical; details: 100 μM peptide
Method in brief: as §1

CLK2(h) = CLK2(h) (Homo sapiens, UniProt P49760); assay: Kinase Profiling Assay; format: biochemical; details: 100 μM peptide
Method in brief: as §1

CK1γ1(h), sequence (Q9HCP0 whole entry): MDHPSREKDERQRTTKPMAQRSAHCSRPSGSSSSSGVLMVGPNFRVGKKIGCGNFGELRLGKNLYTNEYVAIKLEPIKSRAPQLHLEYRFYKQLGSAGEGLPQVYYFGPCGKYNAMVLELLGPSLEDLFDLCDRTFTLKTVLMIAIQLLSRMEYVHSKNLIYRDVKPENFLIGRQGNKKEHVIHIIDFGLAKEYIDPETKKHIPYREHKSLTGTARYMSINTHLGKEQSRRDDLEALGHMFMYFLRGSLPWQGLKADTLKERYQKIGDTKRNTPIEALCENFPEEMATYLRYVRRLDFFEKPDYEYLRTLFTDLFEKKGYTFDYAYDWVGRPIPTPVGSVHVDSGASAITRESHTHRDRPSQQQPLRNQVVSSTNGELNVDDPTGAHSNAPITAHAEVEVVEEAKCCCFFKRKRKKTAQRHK
CK1γ2(h), sequence (P78368 whole entry): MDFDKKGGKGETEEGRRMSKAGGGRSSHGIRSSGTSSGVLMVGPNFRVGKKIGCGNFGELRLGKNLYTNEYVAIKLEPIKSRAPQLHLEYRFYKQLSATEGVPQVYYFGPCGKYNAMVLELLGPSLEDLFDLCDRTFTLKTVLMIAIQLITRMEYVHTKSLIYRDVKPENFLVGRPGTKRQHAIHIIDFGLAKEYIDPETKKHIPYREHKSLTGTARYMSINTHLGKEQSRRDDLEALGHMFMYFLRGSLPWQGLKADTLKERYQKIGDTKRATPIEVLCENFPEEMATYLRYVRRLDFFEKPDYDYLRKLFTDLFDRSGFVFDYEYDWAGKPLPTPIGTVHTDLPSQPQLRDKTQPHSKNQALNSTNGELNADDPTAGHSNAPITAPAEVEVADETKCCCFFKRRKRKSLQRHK
T1 sequence (P53350 whole entry): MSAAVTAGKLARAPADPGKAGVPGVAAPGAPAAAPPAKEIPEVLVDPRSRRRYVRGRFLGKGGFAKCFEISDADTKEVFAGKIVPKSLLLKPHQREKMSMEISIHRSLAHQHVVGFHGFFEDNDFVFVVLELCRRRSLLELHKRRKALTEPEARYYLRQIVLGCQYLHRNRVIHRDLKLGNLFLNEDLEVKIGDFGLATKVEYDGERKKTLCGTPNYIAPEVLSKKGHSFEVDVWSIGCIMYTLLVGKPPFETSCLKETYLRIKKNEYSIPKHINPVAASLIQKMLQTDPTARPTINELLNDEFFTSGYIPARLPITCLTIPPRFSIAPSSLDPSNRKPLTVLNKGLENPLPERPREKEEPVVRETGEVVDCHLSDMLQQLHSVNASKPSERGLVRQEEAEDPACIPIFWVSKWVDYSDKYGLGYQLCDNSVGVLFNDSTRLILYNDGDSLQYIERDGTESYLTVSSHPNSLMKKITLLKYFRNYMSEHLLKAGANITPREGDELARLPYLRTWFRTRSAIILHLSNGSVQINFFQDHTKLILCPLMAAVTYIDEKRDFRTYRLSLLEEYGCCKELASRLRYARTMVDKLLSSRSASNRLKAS
PAK6(h), sequence (Q9NQU5 whole entry): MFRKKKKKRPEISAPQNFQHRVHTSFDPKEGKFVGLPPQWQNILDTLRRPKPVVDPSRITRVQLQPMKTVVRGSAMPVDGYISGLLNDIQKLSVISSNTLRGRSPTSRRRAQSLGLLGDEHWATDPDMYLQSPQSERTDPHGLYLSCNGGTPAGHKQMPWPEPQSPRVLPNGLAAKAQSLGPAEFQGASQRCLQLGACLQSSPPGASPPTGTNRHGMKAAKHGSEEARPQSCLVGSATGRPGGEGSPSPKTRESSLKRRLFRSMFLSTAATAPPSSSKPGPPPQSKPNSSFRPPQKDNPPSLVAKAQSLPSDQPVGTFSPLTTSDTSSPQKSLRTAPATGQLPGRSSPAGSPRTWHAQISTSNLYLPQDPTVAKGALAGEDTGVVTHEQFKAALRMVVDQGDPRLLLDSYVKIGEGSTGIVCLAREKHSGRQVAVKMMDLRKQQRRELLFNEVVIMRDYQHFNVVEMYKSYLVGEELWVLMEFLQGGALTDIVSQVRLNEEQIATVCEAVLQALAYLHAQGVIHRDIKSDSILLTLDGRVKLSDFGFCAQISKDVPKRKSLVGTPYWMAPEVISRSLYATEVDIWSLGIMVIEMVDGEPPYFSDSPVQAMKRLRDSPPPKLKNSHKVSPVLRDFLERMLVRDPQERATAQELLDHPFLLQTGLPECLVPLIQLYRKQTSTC
CLK2(h), sequence (P49760 whole entry): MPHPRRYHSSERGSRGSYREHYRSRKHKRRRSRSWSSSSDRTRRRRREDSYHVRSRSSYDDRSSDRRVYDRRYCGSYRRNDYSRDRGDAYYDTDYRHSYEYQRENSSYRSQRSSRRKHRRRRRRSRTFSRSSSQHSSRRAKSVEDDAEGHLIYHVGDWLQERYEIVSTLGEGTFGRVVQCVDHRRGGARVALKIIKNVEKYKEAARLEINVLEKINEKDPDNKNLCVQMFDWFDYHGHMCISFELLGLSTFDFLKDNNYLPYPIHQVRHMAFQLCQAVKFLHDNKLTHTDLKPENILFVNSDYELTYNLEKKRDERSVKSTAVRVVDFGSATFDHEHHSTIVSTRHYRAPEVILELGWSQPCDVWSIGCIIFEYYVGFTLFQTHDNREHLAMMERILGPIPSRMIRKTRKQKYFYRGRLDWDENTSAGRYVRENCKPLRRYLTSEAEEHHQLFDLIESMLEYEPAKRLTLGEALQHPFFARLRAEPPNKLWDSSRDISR

CC(C)C[C@H](NC(=O)[C@H](C)NC(=O)[C@H](CCCCN)NC(=O)[C@H](C)NC(=O)[C@H](CCCNC(=N)N)NC(=O)[C@H](C)NC(=O)[C@H](CCC(N)=O)NC(=O)[C@H](CCCNC(=N)N)NC(=O)[C@H](C)NC(=O)[C@H](C)NC(=O)[C@H](C)NC(=O)[C@H](CCCNC(=N)N)NC(=O)[C@H](C)NC(=O)[C@@H](N)Cc1ccc(O)cc1)C(=O)N[C@@H](C)C(=O)N[C@@H](CCCNC(=N)N)C(=O)N[C@@H](CCC(N)=O)C(=O)N[C@@H](CC(C)C)C(=O)NCC(=O)N[C@H](C(=O)N[C@@H](C)C(=O)N[C@@H](C)C(=O)O)C(C)C [MMI-0100] (H-YARAAARQARAKALARQLGVAA-OH; N-terminus and C-terminus assumed) was tested, and the “proliferation of T cells in the presence of antigen presenting cells” value (splenic T cells; 50 μg/kg/day intraperitoneal (systemic)) was “significantly reduced”, the “proliferation of T cells in the presence of antigen presenting cells” value (splenic T cells; 50 μg/kg/day nebulizer (inhaled)) was “not by the inhaled mode” and the “toxicity (proliferative response of splenic T cells to α-CD3)” value (splenic T cells; 50 μg/kg/day) was “no toxicity”. The “collagen deposition (hydroxyproline assay, whole left lung)” value ([1]; IP or NEB from day 14, day 28 post bleomycin) was “significantly arrested further progression of collagen deposition”, the “lung architecture and collagen distribution (H&E, Masson's blue trichrome)” value ([1]; intraperitoneal or nebulized, daily day 14 to 28) was “clearer lung parenchyma” and the “activated MK2 (phospho-Thr^334-MAPKAPK2) staining” value (phospho-Thr^334-MAPKAPK2) was “decreased phospho-Thr^334-MAPKAPK2 staining”.
In the case of FAKLAARLYRKALARQLGVAA [MMI-0300], the “CK1γ2(h) % activity” value (CK1γ2(h)) is reported as 123%.
With KAFAKLAARLYRKALARQLGVAA [MMI-0400] the “PAK6(h) % activity” value (PAK6(h)) was 100%.
For “HRRIKAWLKKIKALARQLGVAA (Mammalian) [MMI-0500]”, the “c-RAF(h) % activity” value (c-RAF(h)) was 19%.
With “YARAAARQARAKALNRQLGVA (Mammalian) [MMI-0200]” the “Plk1(h) % activity” value (Plk1(h)) was 128%, the “CK1γ1(h) % activity” value (CK1γ1(h)) was 98% and the “CLK2(h) % activity” value (CLK2(h)) was 97%.
